{
  "source": "paper PMC5632672",
  "about": "“Generation of Persister Cells of Pseudomonas aeruginosa and Staphylococcus aureus by Chemical Treatment and Evaluation of Their Susceptibility to Membrane-Targeting Agents” (Frontiers in Microbiology, 2017)",
  "key": {"[1]": {"system": "Staphylococcus aureus ATCC 33591", "assay": "MIC and MBC by standard microdilution after revival of CCCP-induced persisters"}, "[2]": {"system": "Pseudomonas aeruginosa ATCC 27853"}, "[3]": {"system": "Staphylococcus aureus ATCC 33591"}, "[4]": {"system": "Pseudomonas aeruginosa ATCC 27853", "assay": "Induction of persistence with CCCP, survival to antibiotic treatment", "conditions": "P. aeruginosa"}, "[5]": {"system": "Pseudomonas aeruginosa ATCC 27853", "assay": "MIC and MBC by standard microdilution after revival of CCCP-induced persisters"}, "[6]": {"system": "Pseudomonas aeruginosa ATCC 27853", "assay": "Isothermal microcalorimetry, bacterial heat production", "type": "cell-based", "conditions": "P. aeruginosa stationary-phase culture incubated with CCCP 200 μg/mL, recorded for 24 h, Figure 3"}, "[7]": {"system": "Pseudomonas aeruginosa ATCC 27853", "assay": "Flow cytometry, oxidoreductase activity with RedoxSensor Green", "type": "cell-based", "conditions": "P. aeruginosa, 3-h exposure to CCCP 200 μg/mL, Figure 4A", "protocol": "(§1) The metabolic activity of CCCP-induced PCs of P. aeruginosa and S. aureus was also evaluated by determining the oxidoreductase activity through flow cytometry. […] Then, bacterial suspensions were stained with the RedoxSensor^TM Green reagent (RSG) (BacLight^TM RedoxSensor^TM Green Vitality Kit, Thermo Fisher Scientific, Waltham, MA, United States) according to the manufacturer’s instructions. Briefly, 1 mL of the bacterial suspension was incubated with 1 μL (P. aeruginosa) or 0.1 μL (S. aureus) of 1 mM RSG for 10 min at 37°C in the dark. Stained samples were analyzed with a BD Accuri C6 flow cytometer (BD Biosciences, Mountain View, CA, United States) equipped with a 488 nm laser and a 533/30 nm optical filter. Data were collected and analyzed with BD Accuri C6 software (BD Biosciences), and results were plotted as cell counts versus fluorescence intensity."}, "[8]": {"system": "Staphylococcus aureus ATCC 33591", "assay": "Flow cytometry, oxidoreductase activity with RedoxSensor Green", "type": "cell-based", "conditions": "S. aureus, 3-h exposure to CCCP 400 μg/mL, Figure 4B", "protocol": "as §1"}, "[9]": {"system": "Pseudomonas aeruginosa ATCC 27853", "assay": "Revival assay of CCCP-induced persisters", "type": "cell-based", "conditions": "P. aeruginosa, CCCP 200 μg/mL 3 h, washed, fresh LB"}, "[10]": {"system": "Staphylococcus aureus ATCC 33591", "type": "cell-based", "conditions": "S. aureus, CCCP 400 μg/mL 3 h, washed, fresh LB"}, "[11]": {"system": "Pseudomonas aeruginosa ATCC 27853", "assay": "Effect of CCCP on cell viability, CFU counting", "conditions": "P. aeruginosa stationary-phase cultures, CCCP at concentrations up to 200 μg/mL, 3 h, 37°C, Figure 1", "experimental": "(§2) Bacteria were grown in LB medium for approximately 18 h at 37°C to obtain stationary-phase cells, as assessed by monitoring bacterial growth by optical density. A volume of 1 mL of the overnight cultures was incubated with 10 μL of CCCP at different concentrations (from 25 to 400 μg/mL) for 3 h at 37°C with shaking. Bacterial cultures exposed to DMSO were used as cell viability control. Following the incubation, bacteria were washed twice in sodium-phosphate buffer (10 mM SPB, pH 7.4) by centrifugation (1700 × g for 10 min), subsequently diluted 10-fold in LB and plated on TSA to determine the number of CFU."}, "[12]": {"system": "Staphylococcus aureus ATCC 33591", "assay": "Effect of CCCP on cell viability, CFU counting", "conditions": "S. aureus stationary-phase cultures, CCCP at concentrations up to 400 μg/mL, 3 h, 37°C, Figure 1", "experimental": "as §2"}, "[13]": {"system": "Staphylococcus aureus ATCC 33591", "assay": "Isothermal microcalorimetry, bacterial heat production", "conditions": "S. aureus stationary-phase culture incubated with CCCP 400 μg/mL, recorded for 24 h, Figure 3", "experimental": "The metabolic profile of CCCP-induced persisters of P. aeruginosa and S. aureus was evaluated by real-time monitoring of bacterial heat production through isothermal microcalorimetry. […] Ampoules were inserted into the calorimeter, placed in the thermal equilibration position for 15 min and then lowered into the measuring position. After 45 min of signal stabilization, measurements of the heat flow were initiated and recorded for 24 h. Data analysis was performed with the manufacturer software (TAM Assistant) and GraphPad Prism (GraphPad Software, La Jolla, CA, United States), and results were plotted as heat flow (in microwatts) or total heat (in joules) versus time."}, "[14]": {"system": "Staphylococcus aureus ATCC 33591", "assay": "Induction of persistence with CCCP, survival to antibiotic treatment", "conditions": "S. aureus"}, "[15]": {"conditions": "ATCC33591, 24 h, read-out: MIC, CCCP-untreated"}, "[16]": {"conditions": "ATCC33591, read-out: MBC, CCCP-pretreated"}, "[17]": {"conditions": "ATCC33591, read-out: MBC, CCCP-untreated"}, "[18]": {"conditions": "ATCC33591, read-out: MIC, CCCP-pretreated"}, "[19]": {"conditions": "ATCC27853, read-out: MBC, CCCP-pretreated"}, "[20]": {"conditions": "ATCC27853, read-out: MBC, CCCP-untreated"}, "[21]": {"conditions": "CCCP 200 μg/mL for 3 h, then meropenem 10 μg/mL 3 h, Figure 2C"}, "[22]": {"conditions": "CCCP 400 μg/mL for 3 h, then gentamicin 10 μg/mL 3 h, Figure 2F"}},
  "note": "Like-named read-outs stand apart in the source and are kept apart here. Positions of bridges follow the written chain, without caps; N, C: chain ends. Non-standard residues stand in square brackets, D forms with d. Residues, ends and D or L forms follow the SMILES beside them. *: point of attachment. X1 = CC[C@H](C)CCCCC(=O)*; Dab = NCC[C@H](N)C(=O)O",
  "data": [
    {"compound": "CNC(C)C1CCC(N)C(OC2C(N)CC(N)C(OC3OCC(C)(O)C(NC)C3O)C2O)O1", "note": "(centres unmarked) [Gentamicin]", "values": [
      {"measurement": "MIC", "setting": "[1]; [15]", "result": 20, "unit": "µg/mL"},
      {"measurement": "MBC", "setting": "[1]; [16]", "result": 40, "unit": "µg/mL"},
      {"measurement": "MBC", "setting": "[1]; [17]", "result": 40, "unit": "µg/mL"},
      {"measurement": "MIC", "setting": "[1]; [18]", "result": 20, "unit": "µg/mL"}
    ]},
    {"compound": "[WKKIRVRLSA]2-K-8Aoc-NH2 [Den-SB056]", "values": [
      {"measurement": "MBC, P. aeruginosa CCCP-pretreated", "setting": "[2]; persister-enriched cultures (CCCP 200 μg/mL, 3 h), SPB/LB, 1 × 10^6 CFU/mL, 3 h, 37°C, CFU counting", "result": 1.75, "unit": "µM"},
      {"measurement": "MBC, P. aeruginosa CCCP-untreated", "setting": "[2]; stationary-phase cultures, CCCP-untreated, SPB/LB, 1 × 10^6 CFU/mL, 3 h, 37°C, CFU counting", "result": 0.87, "unit": "µM"},
      {"measurement": "MBC, S. aureus CCCP-pretreated", "setting": "[3]; persister-enriched cultures (CCCP 400 μg/mL, 3 h), SPB/LB (daptomycin: deionized water with 1% LB and 75 μg/mL CaCl2), 1 × 10^6 CFU/mL, 3 h, 37°C, CFU counting", "result": 1.75, "unit": "µM"},
      {"measurement": "MBC, S. aureus CCCP-untreated", "setting": "[3]; stationary-phase cultures, CCCP-untreated, SPB/LB (daptomycin: deionized water with 1% LB and 75 μg/mL CaCl2), 1 × 10^6 CFU/mL, 3 h, 37°C, CFU counting", "result": 1.75, "unit": "µM"}
    ]},
    {"compound": "O=C(O)c1cn(C2CC2)c2cc(N3CCNCC3)c(F)cc2c1=O", "note": "[Ciprofloxacin]", "values": [
      {"measurement": "percentage of stationary-phase culture surviving antibiotic exposure, no CCCP pretreatment", "setting": "[4]; ciprofloxacin 5 μg/mL, 3 h, SPB/LB, Figure 2A", "result": "less than 0.01%"},
      {"measurement": "MIC", "setting": "[5]; ATCC27853, 24 h, read-out: MIC, CCCP-untreated", "result": 0.5, "unit": "µg/mL"},
      {"measurement": "MBC", "setting": "[5]; [19]", "result": 1, "unit": "µg/mL"},
      {"measurement": "MBC", "setting": "[5]; [20]", "result": 1, "unit": "µg/mL"},
      {"measurement": "MIC", "setting": "[5]; ATCC27853, read-out: MIC, CCCP-pretreated", "result": 0.5, "unit": "µg/mL"}
    ]},
    {"compound": "N#CC(C#N)=NNc1cccc(Cl)c1", "note": "[CCCP, Carbonyl cyanide m-chlorophenylhydrazone]", "values": [
      {"measurement": "basal heat production", "setting": "[6]", "result": "< 5", "unit": "μWh"},
      {"measurement": "reduction in RSG fluorescence vs untreated control", "setting": "[7]", "result": "approximately three"},
      {"measurement": "reduction in RSG fluorescence vs untreated control", "setting": "[8]", "result": "approximately three"},
      {"measurement": "lag phase before resuming replication at a normal rate, optical density", "setting": "[9]; OD600, Figure 5B", "result": "approximately 1 h"},
      {"measurement": "time lag in heat production after CCCP removal (time of maximum heat production)", "setting": "[9]; microcalorimetry, Figure 5A", "result": 1.5, "unit": "h"},
      {"measurement": "lag phase before resuming replication at a normal rate, optical density", "setting": "[10]; OD600, Figure 5D", "result": "approximately 1 h"},
      {"measurement": "delay in heat production after CCCP removal (time of maximum heat production)", "setting": "[10]; microcalorimetry, Figure 5C", "result": 1, "unit": "h"},
      {"measurement": "effect on cell viability", "setting": "[11]", "result": "did not exert a significant killing effect"},
      {"measurement": "effect on cell viability", "setting": "[12]", "result": "only a minor effect on cell viability"},
      {"measurement": "basal heat production", "setting": "[13]", "result": "< 5", "unit": "μWh"},
      {"measurement": "fold increase in the number of persister-like cells vs untreated control", "setting": "[4]; CCCP 200 μg/mL for 3 h, then ciprofloxacin 5 μg/mL 3 h, Figure 2A", "result": 5000, "unit": "fold"},
      {"measurement": "fold increase in the percentage of bacteria tolerant to meropenem", "setting": "[4]; [21]", "result": 200, "unit": "fold"},
      {"measurement": "percentage of starting bacterial population tolerant to meropenem after CCCP pretreatment", "setting": "[4]; [21]", "result": 35, "unit": "%"},
      {"measurement": "fold increase in survival to gentamicin", "setting": "[14]; [22]", "result": "approximately 500 times"},
      {"measurement": "percentage of cells becoming persisters (surviving gentamicin) after CCCP pretreatment", "setting": "[14]; [22]", "result": 20, "unit": "%"},
      {"measurement": "percentage of initial population surviving levofloxacin exposure after CCCP pretreatment", "setting": "[14]; CCCP 400 μg/mL for 3 h, then levofloxacin 2.5 μg/mL 3 h, Figure 2D", "result": "approximately 60%"}
    ]},
    {"compound": "CC[C@H](C)CCCCC(=O)N[C@@H](CCN)C(=O)N[C@H](C(=O)N[C@@H](CCN)C(=O)N[C@H]1CCNC(=O)[C@H]([C@@H](C)O)NC(=O)[C@H](CCN)NC(=O)[C@H](CCN)NC(=O)[C@H](CC(C)C)NC(=O)[C@@H](CC(C)C)NC(=O)[C@H](CCN)NC1=O)[C@@H](C)O", "note": "[Colistin, colistin] (X1-[Dab]T[Dab][Dab][Dab][dL]L[Dab][Dab]T; lactam 4-C (inferred); N-terminus assumed)", "values": [
      {"measurement": "concentration eradicating persister-enriched cultures to the limit of detection (complete killing)", "setting": "[2]", "result": 3.5, "unit": "µM"},
      {"measurement": "MBC, P. aeruginosa CCCP-pretreated", "setting": "[2]; ATCC 27853, 3 h", "result": 3.5, "unit": "µM"},
      {"measurement": "MBC, P. aeruginosa CCCP-untreated", "setting": "[2]; ATCC 27853, 3 h", "result": 1.75, "unit": "µM"},
      {"measurement": "fold increase in MBC against CCCP-pretreated vs CCCP-untreated bacteria", "setting": "[2]; P. aeruginosa", "result": 2, "unit": "fold"}
    ]},
    {"compound": "C[C@H]1COc2c(N3CCN(C)CC3)c(F)cc3c(=O)c(C(=O)O)cn1c23", "note": "[Levofloxacin, levofloxacin]", "values": [
      {"measurement": "percentage of initial inoculum tolerating antibiotic treatment, no CCCP pretreatment", "setting": "[14]; levofloxacin 2.5 μg/mL, 3 h, SPB/LB, Figure 2D", "result": "approximately 0.5%"},
      {"measurement": "MIC", "setting": "[1]; [15]", "result": 0.5, "unit": "µg/mL"},
      {"measurement": "MBC", "setting": "[1]; [16]", "result": 0.5, "unit": "µg/mL"},
      {"measurement": "MBC", "setting": "[1]; [17]", "result": 0.5, "unit": "µg/mL"},
      {"measurement": "MIC", "setting": "[1]; [18]", "result": 0.5, "unit": "µg/mL"}
    ]},
    {"compound": "C[C@@H](O)[C@H]1C(=O)N2C(C(=O)O)=C(S[C@@H]3CN[C@H](C(=O)N(C)C)C3)[C@H](C)[C@H]12", "note": "[Meropenem, meropenem]", "values": [
      {"measurement": "MBC", "setting": "[5]; [19]", "result": 10, "unit": "µg/mL"},
      {"measurement": "MBC", "setting": "[5]; [20]", "result": 10, "unit": "µg/mL"}
    ]},
    {"compound": "CCCCCCCCCC(=O)N[C@@H](Cc1c[nH]c2ccccc12)C(=O)N[C@H](CC(N)=O)C(=O)N[C@@H](CC(=O)O)C(=O)N[C@@H]1C(=O)NCC(=O)N[C@@H](CCCN)C(=O)N[C@@H](CC(=O)O)C(=O)N[C@H](C)C(=O)N[C@@H](CC(=O)O)C(=O)NCC(=O)N[C@H](CO)C(=O)N[C@@H]([C@H](C)CC(=O)O)C(=O)N[C@@H](CC(=O)c2ccccc2N)C(=O)O[C@@H]1C", "note": "[Daptomycin]", "values": [
      {"measurement": "MBC, S. aureus CCCP-pretreated", "setting": "[3]; ATCC 33591, 3 h", "result": 112, "unit": "µM"},
      {"measurement": "MBC, S. aureus CCCP-untreated", "setting": "[3]; ATCC 33591, 3 h", "result": 7, "unit": "µM"},
      {"measurement": "fold higher concentration required to kill CCCP-induced persisters than untreated bacteria (MBC)", "setting": "[3]; S. aureus", "result": 16, "unit": "fold"},
      {"measurement": "bactericidal concentration against persisters relative to those of the tested AMPs", "setting": "[3]; S. aureus CCCP-pretreated, Figure 6B", "result": "32 to 64", "unit": "fold"}
    ]}
  ]
}
